From PubChem BioAssay (NCI) come the findings set out here.

Some test systems named below: ACHN renal; CCRF-CEM leukemia; HCC-2998 colon; HS 578T breast; K-562 leukemia; OVCAR-3 ovarian; RPMI-8226 leukemia; SK-MEL-2 melanoma; SNB-75 CNS; LOX IMVI melanoma.
Test in all cases: NCI tumour cell line growth inhibition, 48 h

SMILES strings stand for the structures.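 Interpolation was linear, between the two tested concentrations surrounding the appropriate level; five concentrations were tested over 48 hours in 96-well plates. The concentration for 50% growth inhibition is given as GI50. TGI: concentration producing complete growth inhibition.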

As to `CCCCCCCC/C=C/CCCCCCCC1=NCC[N+]1(CCO)CCO`, the GI50 in the test on ACHN renal is 6.11 µM; in the test on CCRF-CEM leukemia, 1.6 µM; in the test on HCC-2998 colon, 3.67 µM; in the test with HS 578T breast it was 2.16 µM; with K-562 leukemia, 1.52 µM; in the test on OVCAR-3 ovarian, 1.94 µM. Also, the GI50 was 2.71 µM with RPMI-8226 leukemia, 2.69 µM in the test with SK-MEL-2 melanoma and 2.39 µM in the test on SNB-75 CNS. Also, the TGI in the test with ACHN renal stood at 20.8 µM; in the test with CCRF-CEM leukemia it was 4.46 µM; with HCC-2998 colon, 20.3 µM; in the test with HS 578T breast, 7.66 µM; in the test with K-562 leukemia, 4.34 µM; in the test with OVCAR-3 ovarian, 4.42 µM. The TGI was 10.8 µM with RPMI-8226 leukemia, 6.01 µM with SK-MEL-2 melanoma and 9.52 µM in the test with SNB-75 CNS.
As for `Cc1cccc(Oc2nccc(-c3c(-c4ccc(F)cc4)ncn3C3CCNCC3)n2)c1C`, the GI50 in the test with ACHN renal is 6.11 µM; in the test on HCC-2998 colon it was 4.22 µM; in the test on HS 578T breast it was 8.9 µM; in the test with K-562 leukemia, 5.68 µM; with LOX IMVI melanoma it was 5.79 µM; with OVCAR-3 ovarian it was 14.3 µM. The GI50 is 7.52 µM in the test on RPMI-8226 leukemia, 9.09 µM in the test on SK-MEL-2 melanoma and 5.58 µM in the test on SNB-75 CNS. The TGI in the test on ACHN renal is above 25 µM; in the test with HCC-2998 colon it was 8.96 µM; with HS 578T breast it was above 16.2 µM; in the test with K-562 leukemia, 16 µM; in the test with LOX IMVI melanoma, above 15.1 µM; in the test on OVCAR-3 ovarian, above 25 µM. Besides, the TGI with RPMI-8226 leukemia was above 18.6 µM; in the test on SK-MEL-2 melanoma it was above 15.9 µM; in the test on SNB-75 CNS it was above 17.5 µM.
As for `CSc1cnn(CCC#N)c(=O)n1`, the TGI with ACHN renal, with CCRF-CEM leukemia, in the test on HCC-2998 colon, with HS 578T breast, in the test with K-562 leukemia and in the test with LOX IMVI melanoma was above 100 µM in each case. Also, the TGI in the test with RPMI-8226 leukemia and with SNB-75 CNS was above 100 µM each time.
Take `NS(=O)(=O)c1cc2c(cc1Cl)NC(Cc1ccccc1)NS2(=O)=O` (stereo not drawn): the TGI in the test on ACHN renal, in the test on HCC-2998 colon, in the test with HS 578T breast, with K-562 leukemia, in the test with LOX IMVI melanoma and in the test on OVCAR-3 ovarian was above 100 µM each time. For the same compound, the TGI in the test with RPMI-8226 leukemia, in the test on SK-MEL-2 melanoma and in the test with SNB-75 CNS was above 100 µM in each case.
Turning to `Cc1ccc(NC(=O)NC(=O)c2ccc([N+](=O)[O-])cc2[N+](=O)[O-])cc1Oc1ncc(Cl)cn1`, the TGI was above 100 µM in the test on ACHN renal; above 62.3 µM in the test on CCRF-CEM leukemia; 0.619 µM in the test on HCC-2998 colon; 10.8 µM in the test on HS 578T breast; above 37.4 µM with K-562 leukemia; 11.9 µM in the test with LOX IMVI melanoma. Besides, the TGI with OVCAR-3 ovarian was found to be 13.6 µM; in the test with RPMI-8226 leukemia it was 3.08 µM; in the test with SNB-75 CNS, 2.4 µM.
In the case of `C=C1C[C@](OC)([C@H](O)C(=O)N[C@@H](OC)[C@@H]2C[C@@H](O)C(C)(C)[C@@H](C[C@@H](COC)OC)O2)O[C@H](C)[C@@H]1C`, the GI50 was 0.00233 µM in the test on ACHN renal; 0.0168 µM in the test with CCRF-CEM leukemia; 0.00101 µM in the test with HCC-2998 colon; 0.00136 µM in the test with HS 578T breast; 0.00121 µM in the test with LOX IMVI melanoma; 0.00117 µM in the test on OVCAR-3 ovarian. For the same compound, the figures for the GI50 with SK-MEL-2 melanoma and in the test on SNB-75 CNS were 0.0023 µM and 0.00273 µM, respectively. Moreover, the TGI in the test with ACHN renal worked out at 0.0114 µM; in the test with CCRF-CEM leukemia, 0.361 µM; in the test on HCC-2998 colon it was 0.00285 µM; in the test on HS 578T breast, 0.0041 µM; in the test with LOX IMVI melanoma, 0.00295 µM; with OVCAR-3 ovarian, 0.00368 µM. For the same compound, the values for the TGI in the test on SK-MEL-2 melanoma and in the test with SNB-75 CNS were 0.025 µM and 0.00825 µM, respectively.
With `CCCCCCCC/C=C/CCCCCCCCC1=NCCN1CCO`, the GI50 in the test on ACHN renal is 2.6 µM; in the test with CCRF-CEM leukemia, 1.91 µM; with HCC-2998 colon it was 14.2 µM; with HS 578T breast, 2.37 µM; in the test with OVCAR-3 ovarian, 11.5 µM; with SK-MEL-2 melanoma, 11.9 µM. Moreover, in the test with SNB-75 CNS, the GI50 was 2.8 µM. Also, the TGI in the test on ACHN renal was determined as 8.39 µM; in the test with CCRF-CEM leukemia it was 4.96 µM; in the test with HCC-2998 colon, 34.2 µM; in the test with HS 578T breast it was 7.68 µM; in the test with OVCAR-3 ovarian, 25.7 µM; in the test on SK-MEL-2 melanoma it was 25.1 µM. The compound also displayed a TGI in the test with SNB-75 CNS of 15.3 µM.
In the case of `CC(C)CCOc1ccc(-c2n[nH]c(C(F)(F)F)c2-c2cncc(C#N)c2)c(O)c1`, the GI50 in the test with ACHN renal is 2.54 µM; in the test on HCC-2998 colon it was 3.05 µM; with HS 578T breast, 2.91 µM; in the test on K-562 leukemia it was 1.87 µM; with LOX IMVI melanoma, 2.77 µM; with OVCAR-3 ovarian, 3.17 µM. Moreover, the figures for the GI50 in the test on RPMI-8226 leukemia, with SK-MEL-2 melanoma and with SNB-75 CNS were 0.697 µM, 1.75 µM and 2.77 µM, respectively. Also, the TGI with ACHN renal is 9.02 µM; in the test with HCC-2998 colon it was 24.3 µM; in the test with HS 578T breast, 21.4 µM; in the test on K-562 leukemia it was above 100 µM; with LOX IMVI melanoma, 8.98 µM; in the test on OVCAR-3 ovarian it was 16.3 µM. The TGI in the test on RPMI-8226 leukemia is 4.65 µM; with SK-MEL-2 melanoma it was 5.3 µM; in the test with SNB-75 CNS, 14.6 µM.
Turning to `CS(=O)CCCCCN=C=S` (stereo not drawn), the GI50 in the test with ACHN renal was 4.07 µM; in the test with CCRF-CEM leukemia it was 4.1 µM; with HCC-2998 colon, 13.9 µM; with HS 578T breast it was 6.38 µM; in the test with LOX IMVI melanoma, 0.782 µM; in the test with OVCAR-3 ovarian, 3.07 µM. Further, the GI50 in the test on RPMI-8226 leukemia is 3.79 µM; in the test on SK-MEL-2 melanoma, 3.43 µM; with SNB-75 CNS it was 3.01 µM. Besides, the TGI with ACHN renal was determined as 16.5 µM; with CCRF-CEM leukemia it was 16.3 µM; in the test with HCC-2998 colon it was 28.8 µM; in the test on HS 578T breast, 36 µM; in the test with LOX IMVI melanoma, 10.3 µM; in the test with OVCAR-3 ovarian, 10.1 µM. Besides, the TGI was 14.5 µM in the test on RPMI-8226 leukemia, 14.7 µM in the test with SK-MEL-2 melanoma and 16.5 µM in the test with SNB-75 CNS.
